Structures can show the parent of a compound that is named as a salt.

T1 sequence (P49336 whole entry): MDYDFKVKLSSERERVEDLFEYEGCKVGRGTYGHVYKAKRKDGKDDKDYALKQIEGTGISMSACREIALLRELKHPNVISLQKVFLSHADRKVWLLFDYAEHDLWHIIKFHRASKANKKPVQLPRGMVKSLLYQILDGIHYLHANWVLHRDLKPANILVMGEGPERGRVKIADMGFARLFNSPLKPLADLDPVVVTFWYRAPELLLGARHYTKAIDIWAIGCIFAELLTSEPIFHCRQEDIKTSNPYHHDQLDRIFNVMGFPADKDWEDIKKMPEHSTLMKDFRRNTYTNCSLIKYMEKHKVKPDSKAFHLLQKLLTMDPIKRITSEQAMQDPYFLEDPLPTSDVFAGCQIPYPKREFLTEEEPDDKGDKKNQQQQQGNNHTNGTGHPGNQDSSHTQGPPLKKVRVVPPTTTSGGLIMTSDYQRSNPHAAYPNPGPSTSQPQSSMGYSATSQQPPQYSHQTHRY
T1 sequence (P24863 whole entry partner): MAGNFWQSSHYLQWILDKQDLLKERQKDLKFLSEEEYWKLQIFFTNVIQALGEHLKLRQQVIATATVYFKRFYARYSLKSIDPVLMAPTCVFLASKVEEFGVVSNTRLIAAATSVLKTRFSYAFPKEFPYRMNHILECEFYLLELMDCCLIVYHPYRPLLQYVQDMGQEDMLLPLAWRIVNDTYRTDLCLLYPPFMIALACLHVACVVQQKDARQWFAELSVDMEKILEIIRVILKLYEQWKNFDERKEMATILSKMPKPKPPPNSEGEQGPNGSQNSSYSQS

The first experiment concerns the target T1, CDK8 (CDK8/CycC) (Homo sapiens, UniProt P49336).
T1 construct: purchased Invitrogen PV4402
As to the kind of experiment: FRET based Lanthascreen binding competition assay.
Conditions: not given
The protocol:
FRET based Lanthascreen binding competition assay: A dye-labeled ATP competitive probe served as a FRET acceptor upon binding to CDK8 labeled with a strepavidin —Eu-chelate (via abiotinylated anti His antibody). […] In case this probe was competed by an inhibitor as such a signal cannot be generated any more. The CDK8 used for this assay was a protein co-expressed with CycC.
The assay procedure for an assay in a 1536 well plate was performed according to the following: 2 μL CDK8/biotin-anti-His Ab/SA-Eu mix in Assay buffer were pipetted into the wells of a micro plate.
1 μL compound in 20 mM Hepes buffer/5% DMSO was added. The plate was shaken for 30 sec and incubated for 20 min at RT. 2 μL Alexa647-probe in assay buffer were added. The plate was shaken for 30 sec again and incubated for 60 min at RT in the dark. Then the plate was read out on a Perkin Elmer Envision (mode LANCE/TRF, excitation 340 nm emission 650 nm).
For orientation: TR-FRET usually uses a lanthanide donor and a delayed reading to cut background.
One may read the IC50 as the concentration needed to halve the response being measured. Regarding `Cn1cc(-c2ccc(-c3cncc4ccc(C(=O)O)cc34)cc2)cn1` [Compound 95, 4-(4-(1-methyl-1H-pyrazol-4-yl)phenyl)isoquinoline-6-carboxylic acid hydrochloride], the half-maximal inhibitory concentration (IC50) was less than 10 nM.

The same experiment, now with this note: 5 nM CDK8/CycC, 10 nM Alexa647-Tracer, 1% DMSO, 60 min at RT; read-out: IC50 CDK8 binding.
For `Cc1cnc(N)c2ccc(C(=O)N3CCC[C@H]3c3ccc(Cl)cc3)nc12` [Compound 88, (S)-(5-amino-8-methyl-1,6-naphthyridin-2-yl)(2-(4-chlorophenyl)pyrrolidin-1-yl)methanone], the IC50 lay within 10 to 100 nM. The same measure, in the same setting: the value for `O=C(c1ccc2cncc(Br)c2n1)N1CCC[C@H]1c1ccc(Br)cc1` [Compound 89, (S)-(8-bromo-1,6-naphthyridin-2-yl)(2-(4-bromophenyl)pyrrolidin-1-yl)methanone] was 10 to 100 nM. On the same count and under the same terms, the value for `O=C(c1ccc2cncc(Br)c2n1)N1CCC[C@H]1c1ccc(F)cc1` [Compound 90, (S)-(8-bromo-1,6-naphthyridin-2-yl)(2-(4-fluorophenyl)pyrrolidin-1-yl)methanone] was 10 to 100 nM; that for `O=C(c1ccc2cncc(Br)c2n1)N1CCC[C@H]1c1ccc(C(F)(F)F)cc1` [Compound 91, (S)-(8-bromo-1,6-naphthyridin-2-yl)(2-(4-(trifluoromethyl)phenyl)pyrrolidin-1-yl)methanone] was 10 to 100 nM; that for `Cc1cncc2ccc(C(=O)N3CCC[C@H]3c3ccc(Br)cc3)nc12` [Compound 92, (S)-(2-(4-bromophenyl)pyrrolidin-1-yl)(8-methyl-1,6-naphthyridin-2-yl)methanone] was less than 10 nM. Still for that read-out and setting: the value for `CN1c2ccc(-c3cncc4ccc(-c5nccn5C)cc34)cc2CS1(=O)=O` [Compound 93, 1-methyl-5-(6-(1-methyl-1H-imidazol-2-yl)isoquinolin-4-yl)-1,3-dihydrobenzo[c]isothiazole 2,2-dioxide] was less than 10 nM; that for `Cn1cc(-c2ccc(-c3cncc4ccc(C(N)=O)cc34)cc2)cn1` [Compound 96, 4-(4-(1-methyl-1H-pyrazol-4-yl)phenyl)isoquinoline-6-carboxamide] was less than 10 nM; that for `CC(C)(O)Cn1cc(-c2ccc(-c3cncc4ccc(C(N)=O)cc34)cc2)cn1` [Compound 97, 4-(4-(1-(2-hydroxy-2-methylpropyl)-1H-pyrazol-4-yl)phenyl)isoquinoline-6-carboxamide] was less than 10 nM. Take `Cn1cc(-c2ccc(-c3cncc4ccc(NS(C)(=O)=O)cc34)cc2)cn1` [Compound 98, N-{4-[4-(1-Methyl-1H-pyrazol-4-yl)-phenyl]-isoquinolin-6-yl}-methanesulfonamide]: the IC50 is less than 10 nM. Same read-out and setting: the value for `CN1c2ccc(-c3cncc4ccccc34)cc2CS1(=O)=O` [Compound 100, 5-(isoquinolin-4-yl)-1-methyl-1,3-dihydrobenzo[c]isothiazole 2,2-dioxide] was less than 10 nM; that for `Cn1cc(-c2ccc(-c3cncc4ccc(C(=O)N5CCNCC5)cc34)cc2)cn1` [Compound 102, (4-(4-(1-methyl-1H-pyrazol-4-yl)phenyl)isoquinolin-6-yl)(piperazin-1-yl)methanone] was less than 10 nM; that for `COCCNc1ccc2cncc(-c3ccc(-c4cnn(C)c4)cc3)c2c1` [Compound 105, (2-Methoxy-ethyl)-{4-[4-(1-methyl-1H-pyrazol-4-yl)-phenyl]-isoquinolin-6-yl}-amine] was less than 10 nM.

On to `CN1c2ccc(-c3cncc4ccc(-c5ncco5)cc34)cc2CS1(=O)=O` [Compound 107, 1-methyl-5-(6-(oxazol-2-yl)isoquinolin-4-yl)-1,3-dihydrobenzo[c]isothiazole 2,2-dioxide], for which the IC50 lay within 10 to 100 nM.

Take `Cn1cc(-c2ccc(-c3cncc4ccccc34)cc2)cn1` [Compound 109, 4-(4-(1-methyl-1H-pyrazol-4-yl)phenyl)isoquinoline]: the IC50 was 10 to 100 nM.

With `Cn1cc(-c2ccc(-c3cncc4ccc(N5CCCCS5(=O)=O)cc34)cc2)cn1` [Compound 110, 6-(1,1-Dioxo-[1,2]thiazinan-2-yl)-4-[4-(1-methyl-1H-pyrazol-4-yl)-phenyl]-isoquinoline], the IC50 lay within 10 to 100 nM.
